Where two headings read alike, the source gives them in different places.
What was measured:
[1] = test system: M. tuberculosis H37Rv-GFP; assay: microbe, parasite or virus in culture; assay type: cell-based, Mycobacterium tuberculosis; conditions: Mycobacterium tuberculosis, H37RV, Macrophage
Raw264.7 cells [2] = assay: Cell number (CellNb) from image analysis of the phenotypic cell-based assay; conditions: for Primary QIM CellNb: primary screen, 20 μM
Raw264.7 cells [3] = conditions: mouse, 5 days; for Primary QIM CellNb: 20 μM
[4] = confirmation, 20 uM, read-out: QIM Confirm % Inhibition 20 uM
[5] = primary screen, 20 μM, read-out: Primary QIM % Inhibition

Row | SMILES | inhibition at 20 µM [1, 4] [%] | inhibition at 20 µM [1, 5] [%] | Primary QIM CellNb (Raw264.7 cells [2]) | Primary QIM CellNb (Raw264.7 cells [3]) | QIM Confirm CellNb 0.2 uM (Raw264.7 cells [2]; confirmation, 0.2 uM) | QIM Confirm CellNb 2 uM (Raw264.7 cells [2]; confirmation) | QIM Confirm CellNb 20 uM (Raw264.7 cells [2]; confirmation, 20 uM) | QIM Confirm CellNb 0.2 uM (Raw264.7 cells [3]; 0.2 uM) | QIM Confirm CellNb 2 uM (Raw264.7 cells [3]; 2 uM) | QIM Confirm CellNb 20 uM (Raw264.7 cells [3]; 20 uM)
1 | Oc1ccc(Br)cc1/C=N/c1ccccc1O [IPK 000 043 83] | 31.3 | -80.9 | 89.0 | 17.1 |  |  |  |  |  | 
2 | CCN1C/C(=C\c2ccc3c(c2)OCO3)C(=O)/C(=C/c2ccc3c(c2)OCO3)C1 [IPK 000 102 52] | 68.1 | 70.4 | 179.8 | −7.0 |  |  |  |  |  | 
3 | Cc1cccc(/C=N/NC(=O)c2ccncc2)c1 [IPK 000 043 26] | 102 | 109 | 347.3 | 102.2 | 413.6 | 523.3 | 430.3 | 98.6 | 99.5 | 72.4
4 | O=C(N/N=C/c1cccc(Br)c1)c1ccncc1 [IPK 000 043 09] | 102 | 95.8 | 258.5 | 100.5 |  |  |  |  |  | 
5 | CN1CCN(NC(=O)c2ccc(COc3ccc(Cl)cc3Cl)o2)CC1 [IPK 000 123 92] | 15.4 | 45.3 | 135.8 | 32.3 |  |  |  |  |  | 
6 | COc1cc(CN(C)NC(=O)c2ccccn2)ccc1OC(=O)c1cccs1 [IPK 000 058 20] | 44.3 | 98.1 | 344.8 | 66.6 |  |  |  |  |  | 
7 | Oc1ccccc1/N=C/c1cc(Br)cc(Br)c1O [IPK 000 044 41] | 29.9 | -120 | 126.8 | 34.0 |  |  |  |  |  | 
8 | COc1ccc(/C=N/NC(=O)c2ccncc2)c(OC)c1 [IPK 000 043 00] | 102 | 104 | 333.3 | 101.4 |  |  |  |  |  | 
9 | O=C(N/N=C/c1ccc(O)cc1)c1ccncc1 [IPK 000 043 07] | 98.6 | 104 | 303.5 | 102.5 |  |  |  |  |  | 
10 | CCCCc1ccc(NC(=O)c2ccc([N+](=O)[O-])cc2Cl)cc1 [IPK 000 047 17] | 88.5 | 57.6 | 152.3 | 69.7 |  |  |  |  |  | 
11 | NNC(=O)c1ccc(COc2cc(Cl)ccc2Cl)o1 [IPK 000 123 02] | 78.2 | 76.8 | 411.8 | 45.3 |  |  |  |  |  | 
12 | O=C(NC12CC3CC(CC(C3)C1)C2)c1ccc([N+](=O)[O-])cc1 [IPK 000 113 77] | 74.3 | 60.9 | 319.8 | 48.4 |  |  |  |  |  | 
13 | O=C(N/N=C/C=C/c1ccc([N+](=O)[O-])cc1)c1ccncc1 [IPK 000 043 30] | 102 | 107 | 305.0 | 100.8 |  |  |  |  |  | 
14 | O=C(O)COc1ccccc1/C=N/NC(=O)c1ccncc1 [IPK 000 105 19] | 106 | 98.7 | 374.3 | 104.1 |  | 566.4 |  |  |  | 
15 | Cc1cc(/C=C(/C#N)C(=O)Nc2cccc(Br)c2)c(C)n1-c1ccc(C(=O)O)cc1 [IPK 000 113 05] | 56.4 | 55.4 | 162.0 | 31.6 |  |  |  |  |  | 
16 | COc1ccccc1/C=N/NC(=O)c1ccncc1 [IPK 000 043 01] | 103 | 86.6 | 287.8 | 103.6 |  |  |  |  |  | 
17 | COc1cc(/C=N/NC(=O)c2ccncc2)cc(Br)c1OC [IPK 000 078 53] | 107 | 84 | 386.0 | 95.6 |  |  |  |  |  | 
18 | COc1cccc(/C=N/NC(=O)c2ccncc2)c1OC [IPK 000 043 02] | 99.8 | 81.1 | 229.5 | 98.7 |  |  |  |  |  | 
19 | Cc1ccc(NC(=O)c2ccc([N+](=O)[O-])cc2Cl)cc1C [IPK 000 047 15] | 85.8 | 69.7 | 281.8 | 61.1 |  |  |  |  |  | 
20 | Cc1ccc(C(=O)NC2CCCCCC2)cc1[N+](=O)[O-] [IPK 000 047 06] | 69.9 | 57.3 | 290.8 | 17.6 |  |  |  |  |  | 
21 | O=C(N/N=C/c1cc(Br)cc([N+](=O)[O-])c1O)c1ccncc1 [IPK 000 080 81] | 99.5 | 94.7 | 363.3 | 104.9 |  |  |  |  |  | 
22 | CCc1ccc(/C=C(/C#N)C(=O)OC(C)C)s1 [IPK 000 107 90] | 89.6 | 79.3 | 494.3 | 52.8 |  |  |  |  |  | 
